Results published in patent US9101620B2, “Polymorph of 3-(substituteddihydroisoindolinone-2-yl)-2,6-dioxopiperidine, and pharmaceutical compositions thereof” (Nanjing Cavendish Bio-Engineering Technology Co., Ltd., priority 2009, dated 2015).

Legend:
Type in all cases: physicochemical
[1] = High humidity test (room temperature, 75±5% relative humidity); conditions: for Change of appearance and content (in words) / Moisture absorption (in words): high humidity test, summary; for Appearance / Content / Weight gain of moisture absorption: room temperature, 75±5% relative humidity
Method: (§1) The raw material of Polymorph 1 of 3-(4-amino-1-oxo-1,3-dihydro-2H-isoindole-2-yl)-piperidine-2,6-dione (hemihydrate) was distributed homogeneously in open petri dish with thickness of the raw material not more than 5 mm and put into thermostatic and humidostatic incubator at room temperature (about 25° C.) and 75±5% relative humidity. Sample was tested at the 5th and 10th day respectively and the results were contrasted with that of the Day 0. Results were listed in Tab. 4. After high humidity test of 75±5% relative humidity for 10 days, the X-ray powder diffraction pattern was shown in FIG. 9; DSC diagram was in FIG. 10-1; TGA diagram was in FIG. 10-2.
as §1, with “Polymorph II” for “Polymorph 1”, “3-(4-amino-1-oxo-1,3-dihydro-2H-isoindole-2-yl)-piperidine-2,6-dione” for “3-(4-amino-1-oxo-1,3-dihydro-2H-isoindole-2-yl)-piperidine-2,6-dione (hemihydrate)”, “Tab. 9.” for “Tab. 4.”, “FIG. 20;” for “FIG. 9;”, “FIG. 21-1;” for “FIG. 10-1;”, “FIG. 21-2.” for “FIG. 10-2.”
as §1, with “Polymorph III” for “Polymorph 1”, “3-(4-amino-1-oxo-1,3-dihydro-2H-isoindole-2-yl)-piperidine-2,6-dione” for “3-(4-amino-1-oxo-1,3-dihydro-2H-isoindole-2-yl)-piperidine-2,6-dione (hemihydrate)”, “Tab. 14.” for “Tab. 4.”, “FIG. 31;” for “FIG. 9;”, “FIG. 32-1;” for “FIG. 10-1;”, “FIG. 32-2.” for “FIG. 10-2.”

[2] = Photostability test (strong illumination); conditions: for Appearance / Content / Related substance: 4500±500 Lx; for Variation of appearance and content (in words): photostability (illumination) test, summary
Excerpt: (§2) The conditions and methods of related substance test involved in this invention were in accordance with HPLC (Appendix VD of Chinese Pharmacopoeia Edition 2005).
(§3) Chromatographic conditions and system applicability: octadecylsilane bonded silica as the filler; 0.01 mol/L of potassium dihydrogen phosphate (adjusted to pH 3.5 by phosphoric acid)-methanol-acetonitrile (80:15:5) as the mobile phase; detection wavelength was 240 nm; the number of theoretical plates should be not less than 2000, calculated according to the peak of 3-(4-amino-1-oxo-1,3-dihydro-2H-isoindole-2-yl)-piperidine-2,6-dione. The resolution of the peak of 3-(4-amino-1-oxo-1,3-dihydro-2H-isoindole-2-yl)-piperidine-2,6-dione from the peaks of adjacent impurities should meet requirements.
The Polymorph I of 3-(4-amino-1-oxo-1,3-dihydro-2H-isoindole-2-yl)-piperidine-2,6-dione (hemihydrate) was distributed homogeneously in open petri dish with the thickness of the raw material not more than 5 mm, and the distance was adjusted to make illumination intensity at 4500±500 Lx. Sample was tested at the 5th and 10th day respectively and the results were contrasted with that of the Day 0. Results were listed in Tab. 2. After strong illumination for 10 days, the X-ray powder diffraction pattern was shown in FIG. 5; DSC diagram of the Polymorph I of 3-(4-amino-1-oxo-1,3-dihydro-2H-isoindole-2-yl)-piperidine-2,6-dione (hemihydrate) was in FIG. 6.
(§4) The Polymorph II of 3-(4-amino-1-oxo-1,3-dihydro-2H-isoindole-2-yl)-piperidine-2,6-dione was distributed homogeneously in open petri dish with the thickness of the raw material not more than 5 mm and the distance was adjusted to make illumination intensity at 4500±500 Lx. Sample was tested at the 5th and 10th day respectively and the results were contrasted with that of the Day 0. Results were listed in Tab. 7. After strong illumination for 10 days, the X-ray powder diffraction pattern was shown in FIG. 16; DSC diagram was in FIG. 17
as §4, with “III” for “II”, “12.” for “7.”, “27;” for “16;”, “28” for “17”

[3] = High temperature test (60° C.); conditions: for Appearance / Content / Related substance: 60° C.; for Variation of appearance and content (in words): high temperature (60° C.) test, summary
Excerpt: as §2, §3
The raw material of Polymorph I of 3-(4-amino-1-oxo-1,3-dihydro-2H-isoindole-2-yl)-piperidine-2,6-dione (hemihydrate) was put into a clean sealed glass bottle and then put in thermostatic drying chamber at 60° C. Sample was tested at the 5th and 10th day respectively and the results were contrasted with that of the Day 0. Results were listed in Tab. 3. After high temperature test of 60° C. for 10 days, the X-ray powder diffraction pattern was shown FIG. 7; DSC diagram was in FIG. 8.
(§5) The raw material of Polymorph II of 3-(4-amino-1-oxo-1,3-dihydro-2H-isoindole-2-yl)-piperidine-2,6-dione was put into a clean sealed glass bottle and then put in thermostatic drying chamber at 60° C. Sample was tested at the 5th and 10th day respectively and the results were contrasted with that of the Day 0. Results were listed in Tab. 8. After high temperature test of 60° C. for 10 days, the X-ray powder diffraction pattern was shown in FIG. 18; DSC diagram was in FIG. 19.
as §5, with “III” for “II”, “13.” for “8.”, “29;” for “18;”, “30.” for “19.”

SMILES	Change of appearance and content (in words) [1]	Moisture absorption (in words) [1]	Appearance ([1]; 0 days)	Content ([1]; 0 days) [%]	Appearance ([1]; 5 days)	Content ([1]; 5 days) [%]	Weight gain of moisture absorption ([1]; 5 days) [%]	Appearance ([1]; 10 days)	Content ([1]; 10 days) [%]	Weight gain of moisture absorption ([1]; 10 days) [%]	Appearance ([2]; 0 days)	Content ([2]; 0 days) [%]	Related substance ([2]; 0 days) [%]	Appearance ([2]; 5 days)	Content ([2]; 5 days) [%]	Related substance ([2]; 5 days) [%]	Appearance ([2]; 10 days)	Content ([2]; 10 days) [%]	Related substance ([2]; 10 days) [%]	Variation of appearance and content (in words) [2]	further results
Nc1cccc2c1CN(C1CCC(=O)NC1=O)C2=O (single isomer, unassigned) [Polymorph II, 3-(4-amino-1-oxo-1,3-dihydro-2H-isoindole-2-yl)-piperidine-2,6-dione]	few obvious change	lower moisture absorption	off-white powder	99.89	off-white powder	99.87	1.33	off-white powder	99.87	2.15	off-white powder	99.89	0.09	off-white powder	99.89	0.09	off-white powder	99.88	0.09	few significant variation	Appearance ([3]; 0 days): Off-white powder; Content ([3]; 0 days): 99.89%; Related substance ([3]; 0 days): 0.09%; Appearance ([3]; 5 days): Off-white powder; Content ([3]; 5 days): 99.86%; Related substance ([3]; 5 days): 0.09%; Appearance ([3]; 10 days): Off-white powder; Content ([3]; 10 days): 99.87%; Related substance ([3]; 10 days): 0.10%; Variation of appearance and content (in words) [3]: few significant variation
Nc1cccc2c1CN(C1CCC(=O)NC1=O)C2=O (single isomer, unassigned) [Polymorph I, 3-(4-amino-1-oxo-1,3-dihydro-2H-isoindole-2-yl)-piperidine-2,6-dione]	few obvious change	very slight moisture absorption	off-white powder	99.87	off-white powder	99.85	0.65	off-white powder	99.85	0.66	off-white powder	99.87	0.05	off-white powder	99.85	0.05	off-white powder	99.86	0.05	few significant variation	Appearance ([3]; 0 days): off-white powder; Content ([3]; 0 days): 99.87%; Related substance ([3]; 0 days): 0.05%; Appearance ([3]; 5 days): off-white powder; Content ([3]; 5 days): 99.86%; Related substance ([3]; 5 days): 0.05%; Appearance ([3]; 10 days): off-white powder; Content ([3]; 10 days): 99.84%; Related substance ([3]; 10 days): 0.06%; Variation of appearance and content (in words) [3]: few significant variation
Nc1cccc2c1CN(C1CCC(=O)NC1=O)C2=O (single isomer, unassigned) [Polymorph III, 3-(4-amino-1-oxo-1,3-dihydro-2H-isoindole-2-yl)-piperidine-2,6-dione]	few obvious change	lower moisture absorption	off-white powder	99.86	off-white powder	99.83	1.25	off-white powder	99.82	1.37	off-white powder	99.86	0.07	off-white powder	99.85	0.07	off-white powder	99.85	0.07	few significant variation	Appearance ([3]; 0 days): off-white powder; Content ([3]; 0 days): 99.86%; Related substance ([3]; 0 days): 0.07%; Appearance ([3]; 5 days): off-white powder; Content ([3]; 5 days): 99.84%; Related substance ([3]; 5 days): 0.07%; Appearance ([3]; 10 days): off-white powder; Content ([3]; 10 days): 99.83%; Related substance ([3]; 10 days): 0.08%; Variation of appearance and content (in words) [3]: few significant variation
